The results in this text go back to patent publication US10494360B2, “Inhibitors of indoleamine 2,3-dioxygenase” (NETHERLANDS TRANSLATIONAL RESEARCH CENTER B.V., priority 2016, dated 2019).

Where “and” joins values, the source holds several entries; their conditions need not be identical. Identical values can stand only once.

By IC50 is commonly meant the concentration that inhibits the measured activity by half.

Experiment [1] deals with T1, IDO1 (Homo sapiens, UniProt P14902). The experiment is described as follows: Cell-based assay for IDO1 in interferon-γ stimulated A-375 melanoma cells. Conditions: interferon-γ stimulation, 48 hours, read-out: IC50, cell-based IDO1 (NFK levels). The protocol:
The biological activity of IDO1 inhibitors can be measured by applying above detection methods to cells that are treated with test compound. The expression of IDO1 can be induced in many different cell lines by stimulation with IFNγ (Takikawa, O., et al., J. Biol. Chem. 263: 2041; 1988; Seegers, et al.), or IDO1 can be expressed in cells that lack endogenous IDO1 by transfection of an expression vector containing IDO1 cDNA.
A-375 melanoma cells were purchased from LGC Standards GmbH (Wesel, Germany) and cultured in DMEM tissue culture medium (Life Technologies, Bleiswijk, The Netherlands), supplemented with 10% (v/v) bovine calf serum. Compounds were dissolved in DMSO and diluted in DMEM. Final DMSO concentration in the assay was 0.4% (v/v). Eight thousand cells per well in 35 μl were seeded in a black 384-well tissue plate (cat. No. 781086; Greiner Bio-One GmbH, Frickenhausen, Germany) and allowed to adhere by incubation at 37° C., 95% humidity, and 5% CO2 overnight. Then, 5 μl of compound solution was added to the cells 1 hour prior to stimulation with 5 μl of 500 ng/ml interferon-γ (R&D Systems, Minneapolis, Minn., USA) diluted in DMEM medium. At the same time, 5 μl of L-tryptophan in 20 mM Hepes buffer pH 7.4 was added. Incubation was continued for 48 hours. To determine NFK levels, 12 μl NFK Green™ (NTRC, Oss, The Netherlands) was added to each well, and the plate was sealed and incubated for 4 hours at 37° C. Fluorescence was measured on an EnVision multimode reader (Perkin Elmer, Waltham, Mass., USA). IC50 were calculated using XLfit™ software (ID Business Solutions, Ltd., Surrey, U.K.).

The target in experiment [2] is T1, IDO1. Description: Biochemical IDO1 assay (NFK GreenScreen). Set-up: Recombinant full-length IDO1 (Seegers, N., et al.) and all other assay components were diluted in IDO1 reaction buffer; made in house. To be noted: for relative activity of separated isomers: less active / most active isomer of the pair, assay not given; for IC50: recombinant full-length IDO1 25 nM, L-tryptophan 100 μM, NFK Green detection, read-out: IC50, inhibitory potency on IDO1. The protocol: Inhibition of IDO1 activity can be measured by determining the enzymatic conversion of L-tryptophan into N-formylkynurenine (NFK) in a reaction mixture containing IDO1 and test compound. The formation of NFK can be detected directly by, for instance, high-performance liquid chromatography (HPLC) methods, or by intrinsic fluorescence.
Compounds were serially diluted in dimethylsulfoxide (DMSO) and finally in IDO1 reaction buffer, consisting of 50 mM NaH2PO4, pH7.0, supplemented with 0.05% Tween-20 (cat. No. P7949; Sigma Aldrich) and 1% glycerol. Recombinant full-length IDO1 (Seegers, N., et al.) and all other assay components were diluted in IDO1 reaction buffer. […] Subsequently, 10 μl of 0.4 mM of the substrate L-tryptophan was added, i.e., the final concentration of L-tryptophan was 100 μM. The DMSO concentration in the assay was 0.3%. […] Incubation was continued for 60 min at room temperature. Then, 10 μl of NFK Green™ (NTRC, Oss, The Netherlands) was added, the plate was sealed, and the reaction was developed for 3 hours at 37° C. To determine the production of N-formyl kynurenine (NFK), the seal was removed and fluorescence was read on an EnVision multimode reader (Perkin Elmer, Waltham, Mass., USA). IC50 were calculated using XLfit™ software (ID Business Solutions, Ltd., Surrey, U.K.).

T1 sequence (P14902 whole entry, species assumed): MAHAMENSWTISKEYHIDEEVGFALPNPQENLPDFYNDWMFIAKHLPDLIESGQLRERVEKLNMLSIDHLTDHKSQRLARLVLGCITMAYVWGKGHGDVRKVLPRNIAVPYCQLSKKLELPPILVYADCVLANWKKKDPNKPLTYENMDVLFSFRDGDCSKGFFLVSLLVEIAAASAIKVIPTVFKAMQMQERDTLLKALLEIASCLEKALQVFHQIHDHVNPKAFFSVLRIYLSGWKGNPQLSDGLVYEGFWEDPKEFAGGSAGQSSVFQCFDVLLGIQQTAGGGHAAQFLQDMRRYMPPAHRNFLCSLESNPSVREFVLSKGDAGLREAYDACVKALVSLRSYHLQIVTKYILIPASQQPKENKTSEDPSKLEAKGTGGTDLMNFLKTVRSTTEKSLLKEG

`C[C@@H](c1ccccc1)N1CC(=O)N(O)C1c1cccc(Br)c1` (single isomer, unassigned) [Example 139b]: the IC50 at IDO1 [1] was less than 5 µM; on IDO1 [2], not above 1 µM. In addition, on IDO1 [2], the “relative activity of separated isomers” value was “most active isomer”. As to `C[C@@H](c1ccccc1)N1CC(=O)N(O)C1c1cccc(I)c1` (single isomer, unassigned) [Example 140a], the IC50 at IDO1 [1] was less than 5 µM. Moreover, on IDO1 [2], the “relative activity of separated isomers” value was “less active isomer”; the IC50 was ≤ 5 µM and 1 to 5 µM. On to `CC(c1c(F)cccc1F)N1CC(=O)N(O)C1c1cccc(Br)c1` (single isomer, unassigned) [Example 141b, 2-(3-Bromophenyl)-1-[1-(2,6-difluorophenyl)ethyl]-3-hydroxy-imidazolidin-4-one], for which the IC50 is less than 5 µM at IDO1 [1] and not above 1 µM at IDO1 [2]. Turning to `O=C1CN(C(=O)c2c(F)cccc2F)C(c2cccc(Br)c2)N1O` (single isomer, unassigned) [Example 142a, 2-(3-bromophenyl)-1-(2,6-difluorobenzoyl)-3-hydroxy-imidazolidin-4-one], the IC50 at IDO1 [1] was less than 5 µM. At IDO1 [2], the “relative activity of separated isomers” value was “less active isomer”; the half-inhibitory concentration (IC50) was ≤ 5 µM and 1 to 5 µM. As for `O=C1CN(C(=O)c2ccccc2Cl)C(c2cccc(C(F)(F)F)c2)N1O` (centres unmarked) [Example 2, 1-(2-Chlorobenzoyl)-3-hydroxy-2-[3-(trifluoromethyl)phenyl]imidazolidin-4-one], the IC50 was less than 5 µM on IDO1 [1]; ≤ 5 µM and 1 to 5 µM on IDO1 [2]. As to `O=C1CN(C(=O)c2c(F)cccc2Cl)C(c2cccc(C(F)(F)F)c2)N1O` (centres unmarked) [Example 3, 1-(2-Chloro-6-fluoro-benzoyl)-3-hydroxy-2-[3-(trifluoromethyl)phenyl]imidazolidin-4-one], the IC50 on IDO1 [1] is less than 5 µM; at IDO1 [2], not above 1 µM. As for `O=C1CN(C(=O)c2c(F)cccc2F)C(c2cccc(C(F)(F)F)c2)N1O` (centres unmarked) [Example 4, 1-(2,6-Difluorobenzoyl)-3-hydroxy-2-[3-(trifluoromethyl)phenyl]imidazolidin-4-one], the values for the IC50 at IDO1 [1] and at IDO1 [2] were less than 5 µM and not above 1 µM, respectively. Consider `O=C1CN(C(=O)c2c(F)cccc2Cl)C(c2ccc(Cl)c(C(F)(F)F)c2)N1O` (centres unmarked) [Example 7, 1-(2-Chloro-6-fluoro-benzoyl)-2-[4-chloro-3-(trifluoromethyl)phenyl]-3-hydroxy-imidazolidin-4-one], for which the IC50 at IDO1 [1] is less than 5 µM; at IDO1 [2] it was ≤ 5 µM and 1 to 5 µM. As to `O=C1CN(C(=O)c2c(F)cccc2F)C(c2ccc(Cl)c(C(F)(F)F)c2)N1O` (centres unmarked) [Example 9, 2-[4-Chloro-3-(trifluoromethyl)phenyl]-1-(2,6-difluorobenzoyl)-3-hydroxy-imidazolidin-4-one], the IC50 on IDO1 [1] is less than 5 µM; on IDO1 [2], not above 1 µM. Take `O=C1CN(C(=O)c2ccccc2F)C(c2cccc(C(F)(F)F)c2)N1O` (centres unmarked) [Example 10, 1-(2-Fluorobenzoyl)-3-hydroxy-2-[3-(trifluoromethyl)phenyl]imidazolidin-4-one]: the IC50 at IDO1 [1] was less than 5 µM; on IDO1 [2], ≤ 5 µM and 1 to 5 µM. Take `O=C1CN(C(=O)c2ccccc2F)C(c2cccc(Cl)c2)N1O` (centres unmarked) [Example 13, 2-(3-Chlorophenyl)-1-(2-fluorobenzoyl)-3-hydroxy-imidazolidin-4-one]: the IC50 was less than 5 µM on IDO1 [1] and not above 1 µM on IDO1 [2].

For `O=C1CN(C(=O)c2c(F)cccc2F)C(c2cccc(Cl)c2)N1O` (centres unmarked) [Example 15, 2-(3-Chlorophenyl)-1-(2,6-difluorobenzoyl)-3-hydroxy-imidazolidin-4-one], the results for the IC50 at IDO1 [1] and on IDO1 [2] were less than 5 µM and not above 1 µM, respectively.

On to `O=C1CN(C(=O)c2ccccc2)C(c2cccc(Br)c2)N1O` (centres unmarked) [Example 17, 1-Benzoyl-2-(3-bromophenyl)-3-hydroxy-imidazolidin-4-one], for which the IC50 is less than 5 µM on IDO1 [1]; ≤ 5 µM and 1 to 5 µM at IDO1 [2]. Regarding `N#Cc1cc(F)c(C(=O)N2CC(=O)N(O)C2c2cccc(Br)c2)c(Cl)c1` (centres unmarked) [Example 25, 4-[2-(3-Bromophenyl)-3-hydroxy-4-oxo-imidazolidine-1-carbonyl]-3-chloro-5-fluoro-benzonitrile], the IC50 on IDO1 [1] was less than 5 µM; on IDO1 [2], ≤ 5 µM and 1 to 5 µM. As for `O=C1CN(C(=O)c2cc(F)ccc2F)C(c2cccc(Br)c2)N1O` (centres unmarked) [Example 26, 2-(3-Bromophenyl)-1-(2,5-difluorobenzoyl)-3-hydroxy-imidazolidin-4-one], the IC50 at IDO1 [1] is less than 5 µM; at IDO1 [2], not above 1 µM.

Consider `O=C1CN(C(=O)c2c(F)cccc2F)C(c2cccc(Br)c2)N1O` (centres unmarked) [Example 27, 2-(3-Bromophenyl)-1-(2,6-difluorobenzoyl)-3-hydroxy-imidazolidin-4-one], for which the values for the IC50 on IDO1 [1] and on IDO1 [2] were less than 5 µM and not above 1 µM, respectively. As for `O=C1CN(C(=O)c2c(F)cccc2Cl)C(c2cccc(Br)c2)N1O` (centres unmarked) [Example 32, 2-(3-Bromophenyl)-1-(2-chloro-6-fluoro-benzoyl)-3-hydroxy-imidazolidin-4-one], the IC50 on IDO1 [1] was less than 5 µM; on IDO1 [2] it was not above 1 µM.

Turning to `O=C1CN(C(=O)c2ccccc2F)C(c2cccc(Br)c2)N1O` (centres unmarked) [Example 33, 2-(3-Bromophenyl)-1-(2-fluorobenzoyl)-3-hydroxy-imidazolidin-4-one], the values for the IC50 at IDO1 [1] and at IDO1 [2] were less than 5 µM and not above 1 µM, respectively.

With `O=C1CN(C(=O)c2ccccc2Cl)C(c2cccc(Br)c2)N1O` (centres unmarked) [Example 34, 2-(3-Bromophenyl)-1-(2-chlorobenzoyl)-3-hydroxy-imidazolidin-4-one], the IC50 at IDO1 [1] is less than 5 µM; on IDO1 [2], not above 1 µM. As to `O=C1CN(C(=O)c2cccc(Cl)c2Cl)C(c2cccc(Br)c2)N1O` (centres unmarked) [Example 35, 2-(3-Bromophenyl)-1-(2,3-dichlorobenzoyl)-3-hydroxy-imidazolidin-4-one], the IC50 on IDO1 [1] is less than 5 µM; on IDO1 [2], not above 1 µM.

Regarding `O=C1CN(C(=O)c2ccccc2)C(c2ccc(F)c(Br)c2)N1O` (centres unmarked) [Example 39, 1-Benzoyl-2-(3-bromo-4-fluoro-phenyl)-3-hydroxy-imidazolidin-4-one], the IC50 was less than 5 µM on IDO1 [1]; ≤ 5 µM and 1 to 5 µM at IDO1 [2]. With `O=C1CN(C(=O)c2cccc(F)c2)C(c2ccc(F)c(Br)c2)N1O` (centres unmarked) [Example 43, 2-(3-Bromo-4-fluoro-phenyl)-1-(3-fluorobenzoyl)-3-hydroxy-imidazolidin-4-one], the IC50 at IDO1 [1] was less than 5 µM; on IDO1 [2], ≤ 5 µM and 1 to 5 µM. Regarding `O=C1CN(C(=O)c2c(F)cccc2F)C(c2ccc(F)c(Br)c2)N1O` (centres unmarked) [Example 44, 2-(3-Bromo-4-fluoro-phenyl)-1-(2,6-difluorobenzoyl)-3-hydroxy-imidazolidin-4-one], the IC50 on IDO1 [1] is less than 5 µM; on IDO1 [2], not above 1 µM. In the case of `NS(=O)(=O)NCCCc1cc(F)c(C(=O)N2CC(=O)N(O)C2c2cccc(Br)c2)c(F)c1` (centres unmarked) [Example 132, 2-(3-Bromophenyl)-1-[2,6-difluoro-4-[3-(sulfamoylamino)propyl]benzoyl]-3-hydroxy-4-oxo-imidazolidine], at IDO1 [2], the IC50 is not above 1 µM. For the compound `O=C1CN(C(=O)c2c(F)cc(N3CCC3)cc2F)C(c2cccc(Br)c2)N1O` (centres unmarked) [Example 134, 1-[4-(Azetidin-1-yl)-2,6-difluoro-benzoyl]-2-(3-bromophenyl)-3-hydroxy-imidazolidin-4-one], the IC50 on IDO1 [2] was ≤ 5 µM and 1 to 5 µM.

As for `CN(CCO)c1cc(F)c(C(=O)N2CC(=O)N(O)C2c2cccc(Br)c2)c(F)c1` (centres unmarked) [Example 135, 2-(3-Bromophenyl)-1-[2,6-difluoro-4-[2-hydroxyethyl(methyl)amino]benzoyl]-3-hydroxy-imidazolidin-4-one], the IC50 at IDO1 [2] is ≤ 5 µM and 1 to 5 µM. Turning to `CC(c1c(F)cccc1F)N1CC(=O)N(O)C1c1cccc(Br)c1` (centres unmarked) [Example 141a, 2-(3-Bromophenyl)-1-[1-(2,6-difluorophenyl)ethyl]-3-hydroxy-imidazolidin-4-one], the “relative activity of separated isomers” value at IDO1 [2] is on record as “less active isomer”.
